Where two headings read alike, the source gives them in different places. Blank lines part the entries; values can stand above or below the compound they belong to.
Tests used:
Test in all cases: biochemical
[1] = molecular target: SRPK3 (Homo sapiens, UniProt Q9UPE1)
[2] = molecular target: PCTK1 (Homo sapiens, UniProt Q00536)
[3] = molecular target: TLK2 (Homo sapiens, UniProt Q86UE8)
[4] = molecular target: PRKCE (Homo sapiens, UniProt Q02156)
[5] = molecular target: PAK7 (Homo sapiens, UniProt Q9P286)
[6] = molecular target: ULK2 (Homo sapiens, UniProt Q8IYT8)
[7] = molecular target: PIK3C2G (Homo sapiens, UniProt O75747)
Chain of PIK3C2G (O75747 whole entry): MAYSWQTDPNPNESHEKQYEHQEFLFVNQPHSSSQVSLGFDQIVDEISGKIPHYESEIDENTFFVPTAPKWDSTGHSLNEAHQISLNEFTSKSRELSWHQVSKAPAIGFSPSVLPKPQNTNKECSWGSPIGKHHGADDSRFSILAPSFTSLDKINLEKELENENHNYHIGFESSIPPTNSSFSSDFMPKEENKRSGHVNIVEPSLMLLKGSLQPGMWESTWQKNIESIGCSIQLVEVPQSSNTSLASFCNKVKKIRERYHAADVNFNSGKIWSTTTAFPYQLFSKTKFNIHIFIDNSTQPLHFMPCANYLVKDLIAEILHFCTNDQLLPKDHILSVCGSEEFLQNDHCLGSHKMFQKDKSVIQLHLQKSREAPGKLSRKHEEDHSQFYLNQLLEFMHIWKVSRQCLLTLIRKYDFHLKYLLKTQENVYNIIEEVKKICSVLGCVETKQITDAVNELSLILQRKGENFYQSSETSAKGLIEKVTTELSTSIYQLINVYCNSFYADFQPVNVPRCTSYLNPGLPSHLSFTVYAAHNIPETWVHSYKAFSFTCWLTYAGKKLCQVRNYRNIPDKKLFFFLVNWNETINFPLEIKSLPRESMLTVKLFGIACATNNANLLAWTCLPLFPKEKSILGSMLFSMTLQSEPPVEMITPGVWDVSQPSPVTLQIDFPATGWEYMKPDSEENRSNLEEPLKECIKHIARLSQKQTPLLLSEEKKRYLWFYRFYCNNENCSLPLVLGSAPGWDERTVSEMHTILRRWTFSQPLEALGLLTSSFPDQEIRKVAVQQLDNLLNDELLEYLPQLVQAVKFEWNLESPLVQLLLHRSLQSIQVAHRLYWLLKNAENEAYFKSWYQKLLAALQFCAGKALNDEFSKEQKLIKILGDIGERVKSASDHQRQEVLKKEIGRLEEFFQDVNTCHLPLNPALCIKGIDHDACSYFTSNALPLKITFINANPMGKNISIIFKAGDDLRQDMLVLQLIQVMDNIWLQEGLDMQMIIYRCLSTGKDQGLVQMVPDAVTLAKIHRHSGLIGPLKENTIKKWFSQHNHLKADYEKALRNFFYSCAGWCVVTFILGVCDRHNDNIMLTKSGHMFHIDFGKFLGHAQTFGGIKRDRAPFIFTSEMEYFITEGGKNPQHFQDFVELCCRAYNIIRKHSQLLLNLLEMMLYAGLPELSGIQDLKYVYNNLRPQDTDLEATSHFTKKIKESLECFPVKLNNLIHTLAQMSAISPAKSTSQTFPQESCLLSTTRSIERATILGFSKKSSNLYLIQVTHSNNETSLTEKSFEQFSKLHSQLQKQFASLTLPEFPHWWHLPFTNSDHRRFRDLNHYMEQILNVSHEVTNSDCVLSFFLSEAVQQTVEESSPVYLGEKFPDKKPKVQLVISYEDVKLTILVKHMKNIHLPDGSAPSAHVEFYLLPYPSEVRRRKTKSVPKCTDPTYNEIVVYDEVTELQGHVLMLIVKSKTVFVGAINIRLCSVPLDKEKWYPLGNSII

[8] = molecular target: TXK (Homo sapiens, UniProt P42681)
[9] = molecular target: SBK1 (Homo sapiens, UniProt Q52WX2)
Chain of SBK1 (Q52WX2 whole entry): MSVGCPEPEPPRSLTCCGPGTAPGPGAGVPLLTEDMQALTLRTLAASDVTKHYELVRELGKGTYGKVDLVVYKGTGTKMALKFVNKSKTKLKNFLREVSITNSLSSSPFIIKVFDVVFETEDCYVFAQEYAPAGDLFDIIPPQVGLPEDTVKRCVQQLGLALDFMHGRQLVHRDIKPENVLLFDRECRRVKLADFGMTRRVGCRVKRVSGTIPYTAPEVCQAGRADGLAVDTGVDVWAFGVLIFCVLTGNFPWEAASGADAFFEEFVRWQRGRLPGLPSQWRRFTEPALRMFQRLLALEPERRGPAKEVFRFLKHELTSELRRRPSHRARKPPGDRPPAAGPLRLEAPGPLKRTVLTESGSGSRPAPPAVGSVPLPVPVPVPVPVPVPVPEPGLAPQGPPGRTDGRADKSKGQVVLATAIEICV

[10] = molecular target: SNARK (Homo sapiens, UniProt Q9H093)
[11] = molecular target: TAOK2 (Homo sapiens, UniProt Q9UL54)
[12] = molecular target: PRP4 (Homo sapiens, UniProt Q13523)
[13] = molecular target: TESK1 (Homo sapiens, UniProt Q15569)
[14] = molecular target: TNIK (Homo sapiens, UniProt Q9UKE5)
[15] = molecular target: p38-delta (Homo sapiens, UniProt O15264)
[16] = molecular target: PLK2 (Homo sapiens, UniProt Q9NYY3)
[17] = molecular target: PRKD2 (Homo sapiens, UniProt Q9BZL6)
[18] = molecular target: PIK3CA (Homo sapiens, UniProt P42336)
[19] = molecular target: SRPK2 (Homo sapiens, UniProt P78362)
[20] = molecular target: OSR1 (Homo sapiens, UniProt O95747)
[21] = molecular target: ROS1 (Homo sapiens, UniProt P08922)
[22] = molecular target: YANK3 (Homo sapiens, UniProt Q86UX6)
Chain of YANK3 (Q86UX6 whole entry): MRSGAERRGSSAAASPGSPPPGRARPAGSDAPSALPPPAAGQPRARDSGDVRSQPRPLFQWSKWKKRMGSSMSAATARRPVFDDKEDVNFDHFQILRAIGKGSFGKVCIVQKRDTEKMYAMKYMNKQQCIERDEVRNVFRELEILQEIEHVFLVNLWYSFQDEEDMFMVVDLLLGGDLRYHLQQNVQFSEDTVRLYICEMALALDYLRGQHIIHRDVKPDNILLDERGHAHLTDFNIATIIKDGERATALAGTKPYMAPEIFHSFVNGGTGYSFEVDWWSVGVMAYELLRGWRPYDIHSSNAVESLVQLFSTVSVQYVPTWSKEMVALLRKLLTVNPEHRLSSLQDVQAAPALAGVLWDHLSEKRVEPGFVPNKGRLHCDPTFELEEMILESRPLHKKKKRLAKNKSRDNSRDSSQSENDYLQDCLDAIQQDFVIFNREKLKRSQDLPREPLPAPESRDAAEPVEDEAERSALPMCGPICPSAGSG

[23] = molecular target: YANK1 (Homo sapiens, UniProt Q8WU08)
Chain of YANK1 (Q8WU08 whole entry): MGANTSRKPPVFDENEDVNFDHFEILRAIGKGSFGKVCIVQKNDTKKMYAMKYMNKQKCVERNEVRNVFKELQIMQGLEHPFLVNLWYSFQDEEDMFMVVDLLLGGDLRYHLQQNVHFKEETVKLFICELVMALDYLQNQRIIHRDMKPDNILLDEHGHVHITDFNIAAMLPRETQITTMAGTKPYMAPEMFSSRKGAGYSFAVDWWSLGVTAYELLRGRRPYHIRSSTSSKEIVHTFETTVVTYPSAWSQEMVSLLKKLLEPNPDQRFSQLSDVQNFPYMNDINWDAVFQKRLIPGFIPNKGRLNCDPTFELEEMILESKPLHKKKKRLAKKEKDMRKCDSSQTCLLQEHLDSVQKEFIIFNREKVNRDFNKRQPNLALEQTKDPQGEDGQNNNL

[24] = molecular target: PAK2 (Homo sapiens, UniProt Q13177)
[25] = molecular target: p38-alpha (Homo sapiens, UniProt Q16539)
Chain of p38-alpha (Q16539 whole entry): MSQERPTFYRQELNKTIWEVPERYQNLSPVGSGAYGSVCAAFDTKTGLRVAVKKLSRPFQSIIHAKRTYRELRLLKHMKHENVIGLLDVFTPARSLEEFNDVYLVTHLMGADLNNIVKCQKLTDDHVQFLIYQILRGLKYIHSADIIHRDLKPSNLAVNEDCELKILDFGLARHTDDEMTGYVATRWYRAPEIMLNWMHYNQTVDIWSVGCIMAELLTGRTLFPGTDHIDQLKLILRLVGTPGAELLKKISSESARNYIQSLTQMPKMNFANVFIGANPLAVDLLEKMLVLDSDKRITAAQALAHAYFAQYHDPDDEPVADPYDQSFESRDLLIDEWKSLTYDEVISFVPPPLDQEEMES

[26] = molecular target: PDPK1 (Homo sapiens, UniProt O15530)
[27] = molecular target: SRPK1 (Homo sapiens, UniProt Q96SB4)
[28] = molecular target: PRKD1 (Homo sapiens, UniProt Q15139)
[29] = molecular target: SNRK (Homo sapiens, UniProt Q9NRH2)
[30] = molecular target: p38-gamma (Homo sapiens, UniProt P53778)
[31] = read-out: CPT-1-70-1 (1μM) % control
[32] = read-out: HYJ-2-002-1 (1μM) % control

Chain of SRPK3 (Q9UPE1 whole entry): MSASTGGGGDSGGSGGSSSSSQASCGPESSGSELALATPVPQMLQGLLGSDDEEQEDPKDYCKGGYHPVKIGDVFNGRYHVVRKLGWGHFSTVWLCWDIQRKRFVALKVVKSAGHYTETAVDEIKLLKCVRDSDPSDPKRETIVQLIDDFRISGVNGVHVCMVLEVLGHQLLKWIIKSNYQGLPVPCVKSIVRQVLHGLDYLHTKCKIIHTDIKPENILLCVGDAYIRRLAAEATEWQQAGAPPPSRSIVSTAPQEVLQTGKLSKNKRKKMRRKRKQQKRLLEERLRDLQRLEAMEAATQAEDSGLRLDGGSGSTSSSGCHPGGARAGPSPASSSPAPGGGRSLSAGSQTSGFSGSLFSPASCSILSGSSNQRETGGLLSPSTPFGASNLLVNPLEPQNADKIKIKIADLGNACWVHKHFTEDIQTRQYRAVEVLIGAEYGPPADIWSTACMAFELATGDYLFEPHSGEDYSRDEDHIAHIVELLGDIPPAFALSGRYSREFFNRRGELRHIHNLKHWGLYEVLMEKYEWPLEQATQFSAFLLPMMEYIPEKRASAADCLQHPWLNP
Chain of PCTK1 (Q00536 whole entry): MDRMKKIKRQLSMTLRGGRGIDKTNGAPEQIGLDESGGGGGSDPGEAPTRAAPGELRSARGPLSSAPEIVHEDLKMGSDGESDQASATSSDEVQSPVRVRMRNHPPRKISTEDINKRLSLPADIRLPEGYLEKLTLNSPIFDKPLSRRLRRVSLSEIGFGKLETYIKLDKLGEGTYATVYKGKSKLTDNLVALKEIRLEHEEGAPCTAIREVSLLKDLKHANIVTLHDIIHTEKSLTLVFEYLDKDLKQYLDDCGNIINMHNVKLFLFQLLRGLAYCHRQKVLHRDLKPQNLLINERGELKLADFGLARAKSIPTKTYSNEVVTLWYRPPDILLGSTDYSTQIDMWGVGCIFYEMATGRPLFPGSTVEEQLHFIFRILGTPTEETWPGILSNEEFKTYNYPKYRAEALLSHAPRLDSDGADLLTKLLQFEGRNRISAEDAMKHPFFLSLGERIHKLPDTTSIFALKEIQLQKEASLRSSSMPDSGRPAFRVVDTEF
Chain of PRKCE (Q02156 whole entry): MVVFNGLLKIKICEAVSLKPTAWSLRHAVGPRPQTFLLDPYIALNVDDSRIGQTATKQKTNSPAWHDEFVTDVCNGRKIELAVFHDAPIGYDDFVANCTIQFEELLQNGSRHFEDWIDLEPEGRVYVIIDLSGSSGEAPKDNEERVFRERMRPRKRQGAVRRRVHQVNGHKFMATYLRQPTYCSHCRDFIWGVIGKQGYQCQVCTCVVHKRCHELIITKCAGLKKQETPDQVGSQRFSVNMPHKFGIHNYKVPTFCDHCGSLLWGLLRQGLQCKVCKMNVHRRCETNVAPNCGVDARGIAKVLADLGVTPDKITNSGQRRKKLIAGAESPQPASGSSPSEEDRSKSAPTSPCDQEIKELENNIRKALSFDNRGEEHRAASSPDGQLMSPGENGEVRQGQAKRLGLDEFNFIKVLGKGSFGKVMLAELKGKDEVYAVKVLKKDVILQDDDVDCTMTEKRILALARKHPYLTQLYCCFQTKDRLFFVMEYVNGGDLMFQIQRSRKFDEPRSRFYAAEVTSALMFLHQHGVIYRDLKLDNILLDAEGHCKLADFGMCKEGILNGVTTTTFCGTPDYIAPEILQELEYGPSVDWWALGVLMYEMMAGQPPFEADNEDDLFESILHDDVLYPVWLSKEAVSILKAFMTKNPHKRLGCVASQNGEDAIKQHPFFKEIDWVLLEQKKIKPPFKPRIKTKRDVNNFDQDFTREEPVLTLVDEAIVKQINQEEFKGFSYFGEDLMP

Compound: CN1CCN(c2ccc(Nc3nc(Oc4ccc(NC(=O)CCl)cc4)c4cc[nH]c4n3)cc2)CC1 [CPT1-70-1]
remaining activity at 1 µM [1, 31]: 100%
remaining activity at 1 µM [2, 31]: 100%
remaining activity at 1 µM [3, 31]: 100%
remaining activity at 1 µM [4, 31]: 63%
remaining activity at 1 µM [5, 31]: 13%
remaining activity at 1 µM [6, 31]: 29%
remaining activity at 1 µM [7, 31]: 100%
remaining activity at 1 µM [8, 31]: 4.6%
remaining activity at 1 µM [9, 31]: 10%
remaining activity at 1 µM [10, 31]: 8.5%
remaining activity at 1 µM [11, 31]: 65%
remaining activity at 1 µM [12, 31]: 90%
remaining activity at 1 µM [13, 31]: 83%
remaining activity at 1 µM [14, 31]: 20%
remaining activity at 1 µM [15, 31]: 100%
remaining activity at 1 µM [16, 31]: 78%
remaining activity at 1 µM [17, 31]: 70%
remaining activity at 1 µM [18, 31]: 100%
remaining activity at 1 µM [19, 31]: 98%
remaining activity at 1 µM [20, 31]: 96%
remaining activity at 1 µM [21, 31]: 100%
remaining activity at 1 µM [22, 31]: 100%
remaining activity at 1 µM [23, 31]: 100%
remaining activity at 1 µM [24, 31]: 64%
remaining activity at 1 µM [25, 31]: 100%
remaining activity at 1 µM [26, 31]: 64%
remaining activity at 1 µM [27, 31]: 44%
remaining activity at 1 µM [28, 31]: 52%
remaining activity at 1 µM [29, 31]: 55%
remaining activity at 1 µM [30, 31]: 100%

remaining activity at 1 µM [1, 32]: 90%
remaining activity at 1 µM [2, 32]: 100%
remaining activity at 1 µM [3, 32]: 97%
remaining activity at 1 µM [4, 32]: 100%
remaining activity at 1 µM [5, 32]: 92%
remaining activity at 1 µM [6, 32]: 88%
remaining activity at 1 µM [7, 32]: 100%
remaining activity at 1 µM [8, 32]: 2.1%
remaining activity at 1 µM [9, 32]: 93%
remaining activity at 1 µM [10, 32]: 100%
remaining activity at 1 µM [11, 32]: 18%
remaining activity at 1 µM [12, 32]: 100%
remaining activity at 1 µM [13, 32]: 81%
remaining activity at 1 µM [14, 32]: 11%
remaining activity at 1 µM [15, 32]: 66%
remaining activity at 1 µM [16, 32]: 100%
remaining activity at 1 µM [17, 32]: 42%
remaining activity at 1 µM [18, 32]: 100%
remaining activity at 1 µM [19, 32]: 100%
remaining activity at 1 µM [20, 32]: 93%
remaining activity at 1 µM [21, 32]: 100%
remaining activity at 1 µM [22, 32]: 100%
remaining activity at 1 µM [23, 32]: 100%
remaining activity at 1 µM [24, 32]: 99%
remaining activity at 1 µM [25, 32]: 0.25%
remaining activity at 1 µM [26, 32]: 72%
remaining activity at 1 µM [27, 32]: 83%
remaining activity at 1 µM [28, 32]: 90%
remaining activity at 1 µM [29, 32]: 100%
remaining activity at 1 µM [30, 32]: 54%
Compound: CCN1CCN(Cc2ccc(NC(=O)c3ccc(C)c(CCc4cnc5[nH]ccc5c4OC)c3)cc2C(F)(F)F)CC1 [HYJ-2-002-1]
